Source: the supplement of paper PMC10307832

Experiments:
Experiment in all cases: relative viability (nuclei count vs DMSO), 5 days (fraction); higher = more cells survive
Vorinostat + Decitabine = compound: O=C(CCCCCCC(=O)Nc1ccccc1)NO [Vorinostat] + Nc1ncn([C@H]2C[C@H](O)[C@@H](CO)O2)c(=O)n1 [Decitabine] (partner 2 µM)
Summary of the method: (§1)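 The day after seeding in 1536-well plates, lung cancer cell lines were treated by pin tool with a single drug, or with a fixed anchor-drug dose together with five library-drug doses (not always all listed) in √10 steps. After 5 days, a combined fix-and-stain solution (final 0.05% Triton X-100, 1% formaldehyde, 1 ug/ml Hoechst) was added. Nuclei counted on 4× images gave relative viability as treated counts over vehicle counts, reported as the median of duplicate plates.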

Vorinostat + Linsitinib = compound: O=C(CCCCCCC(=O)Nc1ccccc1)NO [Vorinostat] + C[C@]1(O)C[C@@H](c2nc(-c3ccc4ccc(-c5ccccc5)nc4c3)c3c(N)nccn32)C1 [Linsitinib] (partner 1 µM)
Summary of the method: as §1

Vorinostat + Dasatinib = compound: O=C(CCCCCCC(=O)Nc1ccccc1)NO [Vorinostat] + Cc1nc(Nc2ncc(C(=O)Nc3c(C)cccc3Cl)s2)cc(N2CCN(CCO)CC2)n1 [Dasatinib] (partner 0.075 µM)
Summary of the method: as §1

Vorinostat + Palbociclib = compound: O=C(CCCCCCC(=O)Nc1ccccc1)NO [Vorinostat] + CC(=O)c1c(C)c2cnc(Nc3ccc(N4CCNCC4)cn3)nc2n(C2CCCC2)c1=O [Palbociclib] (partner 0.5 µM)
Summary of the method: as §1

Vorinostat + Tozasertib = compound: O=C(CCCCCCC(=O)Nc1ccccc1)NO [Vorinostat] + Cc1cc(Nc2cc(N3CCN(C)CC3)nc(Sc3ccc(NC(=O)C4CC4)cc3)n2)n[nH]1 [Tozasertib] (partner 0.1 µM)
Summary of the method: as §1

Cell Line	relative viability (Vorinostat + Decitabine; first compound 0.253 µM)	relative viability (Vorinostat + Decitabine; first compound 0.8 µM)	relative viability (Vorinostat + Decitabine; first compound 2.53 µM)	relative viability (Vorinostat + Decitabine; first compound 8 µM)	relative viability (Vorinostat + Linsitinib; first compound 0.253 µM)	relative viability (Vorinostat + Linsitinib; first compound 0.8 µM)	relative viability (Vorinostat + Linsitinib; first compound 2.53 µM)	relative viability (Vorinostat + Linsitinib; first compound 8 µM)	relative viability (Vorinostat + Dasatinib; first compound 0.253 µM)	relative viability (Vorinostat + Dasatinib; first compound 0.8 µM)	relative viability (Vorinostat + Dasatinib; first compound 2.53 µM)	relative viability (Vorinostat + Dasatinib; first compound 8 µM)	relative viability (Vorinostat + Palbociclib; first compound 0.253 µM)	relative viability (Vorinostat + Palbociclib; first compound 0.8 µM)	relative viability (Vorinostat + Palbociclib; first compound 2.53 µM)	relative viability (Vorinostat + Palbociclib; first compound 8 µM)	relative viability (Vorinostat + Tozasertib; first compound 0.253 µM)	relative viability (Vorinostat + Tozasertib; first compound 0.8 µM)	relative viability (Vorinostat + Tozasertib; first compound 2.53 µM)	relative viability (Vorinostat + Tozasertib; first compound 8 µM)
A549	0.224	0.302	0.256	0.0174	0.673	0.651	0.194	0.0382	–	–	–	–	–	–	–	–	–	–	–	–
HCC-827	0.344	0.343	0.274	0.213	1.01	1.04	0.837	0.21	0.299	0.334	0.382	0.314	0.576	0.506	0.333	0.135	0.5	0.454	0.236	0.135
LCLC-103H	0.715	0.766	0.329	0.363	1.18	0.999	0.597	0.172	0.504	0.533	0.339	0.134	0.494	0.424	0.368	0.302	0.377	0.27	0.162	0.127
NCI-H2009	0.416	0.354	0.273	0.0862	1.27	1.07	0.707	0.177	0.466	0.454	0.168	0.082	0.267	0.25	0.171	0.0986	0.776	0.574	0.295	0.133
COR-L 105	0.588	0.679	0.362	0.256	1.1	1.16	0.394	0.222	0.377	0.394	0.259	0.196	0.402	0.396	0.283	0.284	0.458	0.331	0.245	0.213
NCI-H441	0.223	0.199	0.168	0.104	0.501	0.619	0.255	0.117	0.846	0.557	0.285	0.138	0.241	0.249	0.157	0.101	0.607	0.529	0.3	0.194
ChaGo-K-1	0.508	0.516	0.389	0.202	–	–	–	–	0.656	0.568	0.444	0.246	0.943	0.874	0.529	0.182	0.221	0.213	0.191	0.164
EPLC-272H	0.309	0.338	0.189	0.152	1.17	1.13	0.361	0.156	0.428	0.494	0.151	0.0935	0.289	0.294	0.217	0.171	0.289	0.249	0.189	0.149
SK-LU-1	0.655	0.669	0.494	0.196	1.11	1.02	0.64	0.211	0.192	0.208	0.133	0.0924	0.438	0.363	0.32	0.177	0.303	0.186	0.143	0.101
NCI-H2228	–	–	–	–	0.805	0.542	0.425	0.0918	0.39	0.323	0.127	0.0817	0.713	0.431	0.22	0.0631	0.199	0.103	0.0837	0.0871
NCI-H1734	0.548	0.444	0.31	0.0873	0.982	0.856	0.658	0.133	0.608	0.624	0.39	0.111	0.402	0.34	0.253	0.133	0.258	0.229	0.162	0.133
NCI-H2170	0.415	0.407	0.321	0.129	–	–	–	–	0.68	0.459	0.355	0.14	0.407	0.345	0.253	0.102	0.729	0.462	0.147	0.155
NCI-H1792	0.414	0.413	0.163	0.0341	0.57	0.376	0.148	0.0672	0.866	0.921	0.402	0.126	0.725	0.57	0.485	0.175	–	–	–	–
NCI-H1563	–	–	–	–	1.19	1.03	0.749	0.525	0.411	0.458	0.448	0.385	–	–	–	–	–	–	–	–
CAL-12T	–	–	–	–	0.923	0.759	0.563	0.147	0.481	0.471	0.269	0.0806	0.61	0.386	0.182	0.0984	0.446	0.246	0.162	0.109
NCI-H1703	–	–	–	–	1.14	0.846	0.953	0.206	–	–	–	–	–	–	–	–	–	–	–	–
HCC-44	1.03	0.896	0.737	0.413	0.727	0.621	0.167	0.103	–	–	–	–	0.989	0.969	0.812	0.301	1.1	0.296	0.184	0.141
NCI-H596	1.07	0.902	0.68	0.36	1.02	1.04	0.677	0.335	0.634	0.448	0.385	0.202	–	–	–	–	0.839	0.819	0.378	0.183
IA-LM	–	–	–	–	0.685	0.271	0.212	0.0566	–	–	–	–	–	–	–	–	–	–	–	–
SW 900	0.34	0.351	0.23	0.159	–	–	–	–	0.679	0.739	0.249	0.118	0.513	0.526	0.219	0.136	0.584	0.315	0.213	0.113
